Patent publication US20100240591A1, “TPP II INHIBITORS FOR USE IN THE TREATMENT OF AUTOIMMUNE AND INFLAMMATORY DISEASES AND TRANSPLANT REJECTION” (ONCOREG AB, priority 2007, published 2010)
Values joined by “and” are separate entries in the source; they are usually repeats but may differ in a detail not shown here. Equal entries are not always repeated. The star is where a group is joined. Cbz = O=C(OCc1ccccc1)*

How the values were obtained:
Subtilisin = settings: bacterial homologue of the eukaryotic TPP II; cited from earlier work
EL-4 T-lymphoma cells = assay: Growth of EL-4 T-lymphoma cells in vivo in syngeneic C57BI/6 mice; parameters: species or system mouse; settings: 13.8 mg/kg Z-GLA-OH added to 5 mg/kg Dexamethasone, twice weekly, C57BI/6 mice (FIG. 9)
Description: To test whether our TPPII inhibitors could improve the therapeutic effects of an anti-inflammatory drug in vivo, we examined growth of the T cell-derived lymphoma line EL-4 in vivo, in mice subjected to Cortisone-treatment. We used the derivate Dexamethasone at 5 mg/kg, a dose previously reported to cause thymocyte apoptosis, and a block of T cell responses in vivo (Brewer, J. A., Kanagawa, O., Sleckman, B. P., Muglia, L. J., Thymocyte apoptosis induced by T cell activation is mediated by glucocorticoids in vivo. J. Immunol. 2002, 169:1837-43.). The glucocorticoid receptor of T cells is crucial for curtailing lethal immune activation (Brewer J A, Khor B, Vogt S K, Muglia L M, Fujiwara H, Haegele K E, Sleckman B P, Muglia L J. T-cell glucocorticoid receptor is required to suppress COX-2-mediated lethal immune activation. Nat. Med. 2003 October; 9(10):1318-22.). Inhibited activation and proliferation of T cells in vivo by Dexamethasone-treatment is a standard method to treat patients with auto-immune, inflammatory as well as transplantation rejection diseases. It is however clear that disease symptoms, as well as immune activation and proliferation, are sometimes not controlled by Dexamethasone, or other Cortisone derivatives. […]
5×10^6 EL-4 T-lymphoma cells were inoculated subcutaneously into syngeneic C57BI/6 mice. […] The size of EL-4 lymphoma tumours were measured manually twice weekly. […]

TPPII [1] = target: T1, TPPII (Mus musculus, UniProt Q64514); assay: Inhibition of cleavage of AAF-AMC by enriched TPP II (fluorometric peptidase assay); type: biochemical; parameters: 1 ug of high molecular weight protein was used as enzyme in peptidase assays; endogenous in cells; EL-4 (mouse T lymphoma) by inference; settings: for cleavage of AAF-AMC, single reading: arbitrary but relative units; for cleavage of AAF-AMC, mean: mean of three readings
Description: Protein Purification, Peptidase Assays and Analysis of DNA Fragmentation. 100×10^6 cells were sedimented and lysed by vortexing in glass beads and homogenisation buffer (50 mM Tris Base pH 7.5, 250 mM Sucrose, 5 mM MgCl2, 1 mM DTT). Cellular lysates were submitted to differential centrifugation where a supernatant from a 1 hour centrifugation at 100,000×g (cytosol) was submitted to 100,000×g centrifugation for 3-5 hours, which sedimented high molecular weight cytosolic proteins/protein complexes. The resulting pellet dissolved in 50 mM Tris Base pH 7.5, 30% Glycerol, 5 mM MgCl2, and 1 mM DTT, and 1 micro-g of high molecular weight protein was used as enzyme in peptidase assays or in Western blotting for TPP II expression. To test the activity of TPP II we used the substrate AAF-AMC (Sigma, St. Louis, Mo.), at 100 micro-M concentration in 100 micro-I of test buffer composed of 50 mM Tri Base pH 7.5, 5 mM MgCl2 and 1 mM DTT. Cleavage activity was measured by emission at 460 nm in a LS50B Luminescence Spectrometer (Perkin Elmer, Boston, Mass.). For analysis of DNA fragmentation cells were seeded in 12-well plates at 10^6 cells/ml and exposed to 25 micro-M etoposide, a DNA topoisomerase II inhibitor commonly used as an apoptosis-inducing agent, to starvation (50% PBS). Cells were seeded at 10^6 cells/ml in 12-well plates and incubated for the indicated times, usually 18-24 hours. DNA from EL-4 control and adapted cells was purified by standard chloroform extraction, and 2.5 micro-g of DNA was loaded on 1.8% agarose gel for detection of DNA from apoptotic cells.
Table 1 contains in vitro data, in fluorometric units which are arbitrary but relative, for the inhibition of cleavage of AAF-AMC (H-Ala-Ala-7-amido-4-methylcoumarin) by compounds at several concentrations. Some beneficial effect is seen for most of the compounds tested.
TPP II protein was enriched, and then a TPP II-preferred fluorogenic substrate AAF-AMC was used. 100×10^6 cells were sedimented and lysed by vortexing in glass beads and homogenisation buffer (50 mM Tris Base pH 7.5, 250 mM Sucrose, 5 mM MgCl2, 1 mM DTT). Cellular lysates were subjected to differential centrifugation; first the cellular homogenate was centrifuged at 14,000 rpm for 15 min, and then the supernatant was transferred to ultra-centrifugation tubes. Next the sample was ultra-centrifugated at 100,000×g for 1 hour, and the supernatant (denoted as cytosol in most biochemical literature) was subjected to 100,000×g centrifugation for 5 hours, which sedimented high molecular weight cytosolic proteins/protein complexes. The resulting pellet dissolved in 50 mM Tris Base pH 7.5, 30% Glycerol, 5 mM MgCl2, and 1 mM DTT, and 1 ug of high molecular weight protein was used as enzyme in peptidase assays.
To test the activity of TPP II we used the substrate and AAF-AMC (Sigma, St. Louis, Mo.), at 100 uM concentration in 100 ul of test buffer composed of 50 mM Tri Base pH 7.5, 5 mM MgCl2 and 1 mM DTT. To stop reactions we used dilution with 900 ul 1% SDS solution. Cleavage activity was measured by emission at 460 nm in a LS50B Luminescence Spectrometer (Perkin Elmer, Boston, Mass.).

TPPII [2] = target: T1, TPPII; assay: Immuno-cytochemical staining of TPPII in live EL-4 cells treated with inhibitor; type: cell-based; parameters: endogenous in cells; host or cells: EL-4 mouse T-cell lymphoma; settings: 2 hours, 10 micro-M
Description: Immunocytochemistry. Cells were attached to glass cover slips through cytospin and fixed in acetone:methanol (1:1) for 1 hour; then the slides were rehydrated in BSS buffer for 1 hour. The first antibody was added and remained for 1 hour until a brief wash in BSS, after which a secondary conjugate (anti-rabbit-FITC) was added and incubated for 1 hour.
Then the slides were washed and stained with Hoescht 333258 for 30 min. Finally, the slides were mounted with DABCO mounting buffer and kept at 4° C. until analysis.
We performed immuno-cytochemical staining to test whether targeting of TPPII in live cells affected enzyme expression or distribution, by the use of a chicken anti-TPPII serum.

T1 sequence (Q64514 2-1262 limits assumed): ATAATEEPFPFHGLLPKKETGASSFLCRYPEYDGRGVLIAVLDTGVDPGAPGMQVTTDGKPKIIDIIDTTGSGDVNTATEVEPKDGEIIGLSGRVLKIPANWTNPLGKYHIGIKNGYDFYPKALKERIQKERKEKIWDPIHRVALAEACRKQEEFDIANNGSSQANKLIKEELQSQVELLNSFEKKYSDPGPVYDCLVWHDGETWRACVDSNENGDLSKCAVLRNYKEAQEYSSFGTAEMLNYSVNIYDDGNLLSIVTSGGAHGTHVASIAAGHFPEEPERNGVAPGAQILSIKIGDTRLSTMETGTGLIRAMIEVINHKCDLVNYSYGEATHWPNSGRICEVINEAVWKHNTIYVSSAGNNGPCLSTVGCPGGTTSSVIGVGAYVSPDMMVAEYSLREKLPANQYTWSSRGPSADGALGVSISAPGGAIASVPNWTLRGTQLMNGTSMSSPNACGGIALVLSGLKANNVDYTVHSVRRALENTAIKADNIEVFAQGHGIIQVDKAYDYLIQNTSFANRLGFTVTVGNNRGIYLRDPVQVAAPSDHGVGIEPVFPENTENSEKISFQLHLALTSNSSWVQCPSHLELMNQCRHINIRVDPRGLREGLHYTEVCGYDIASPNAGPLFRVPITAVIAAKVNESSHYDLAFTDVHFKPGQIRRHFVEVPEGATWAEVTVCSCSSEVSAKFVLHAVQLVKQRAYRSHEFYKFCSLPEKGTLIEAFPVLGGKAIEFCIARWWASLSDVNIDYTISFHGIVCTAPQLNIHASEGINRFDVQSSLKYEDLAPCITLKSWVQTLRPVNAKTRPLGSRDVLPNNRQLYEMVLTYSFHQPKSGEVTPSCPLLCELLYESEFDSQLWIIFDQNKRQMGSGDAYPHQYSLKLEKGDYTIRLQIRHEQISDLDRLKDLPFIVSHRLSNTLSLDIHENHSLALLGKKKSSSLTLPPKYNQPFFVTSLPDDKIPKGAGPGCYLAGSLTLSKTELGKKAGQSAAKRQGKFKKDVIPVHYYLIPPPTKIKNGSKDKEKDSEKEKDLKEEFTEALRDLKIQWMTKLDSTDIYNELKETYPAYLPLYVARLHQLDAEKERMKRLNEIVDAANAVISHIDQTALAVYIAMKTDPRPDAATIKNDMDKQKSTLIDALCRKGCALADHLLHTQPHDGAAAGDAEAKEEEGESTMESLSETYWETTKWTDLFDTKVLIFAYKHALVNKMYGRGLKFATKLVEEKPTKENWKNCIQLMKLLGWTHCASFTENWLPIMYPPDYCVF

Cbz-Gly-Leu-Ala-OH [Z-GLA-OH]
inhibition of Subtilisin (Subtilisin): found to inhibit | anti-proliferative effect on EL-4 cells in vivo, in combination (EL-4 T-lymphoma cells): increased the anti-proliferative effects of Dexamethasone in some of the mice | cleavage of AAF-AMC, single reading (TPPII [1]; compound 1 nM): 32.54 fluorometric units and 32.61 fluorometric units and 33.41 fluorometric units | cleavage of AAF-AMC, mean (TPPII [1]; compound 1 nM): 32.85 fluorometric units | cleavage of AAF-AMC, single reading (TPPII [1]; compound 10 nM): 21.74 fluorometric units and 21.93 fluorometric units and 24.44 fluorometric units | cleavage of AAF-AMC, mean (TPPII [1]; compound 10 nM): 22.70 fluorometric units | cleavage of AAF-AMC, single reading (TPPII [1]; compound 100 nM): 14.43 fluorometric units and 14.26 fluorometric units and 14.37 fluorometric units | cleavage of AAF-AMC, mean (TPPII [1]; compound 100 nM): 14.35 fluorometric units | cleavage of AAF-AMC, single reading (TPPII [1]; compound 1 uM): 11.43 fluorometric units and 11.9 fluorometric units and 11.46 fluorometric units | cleavage of AAF-AMC, mean (TPPII [1]; compound 1 uM): 11.60 fluorometric units | cleavage of AAF-AMC, single reading (TPPII [1]; compound 10 uM): 6.47 fluorometric units and 7.66 fluorometric units and 7.49 fluorometric units | cleavage of AAF-AMC, mean (TPPII [1]; compound 10 uM): 7.21 fluorometric units | cleavage of AAF-AMC, single reading (TPPII [1]; compound 100 uM, 0 compound about 47-51): 1.14 fluorometric units and 1.44 fluorometric units and 1.55 fluorometric units | cleavage of AAF-AMC, mean (TPPII [1]; compound 100 uM): 1.38 fluorometric units | detection of TPPII by immuno-cytochemical staining (TPPII [2]): rapid decrease in the detection of TPPII, to almost undetectable levels
